Activity calls are given as the source filed them. No cut-off for these calls is given here.
What was measured:
Assay type in all cases: functional, organism-based
Rattus norvegicus [1] = assay: Ratio of ovulated rats to total number of rats determined in a anti-ovulatory assay by administering 2.5 microg of compound; 0/8
Rattus norvegicus [2] = assay: Ratio of ovulated rats to total number of rats determined in a anti-ovulatory assay by administering 1 microg of compound; 2/7
Rattus norvegicus [3] = assay: Ratio of ovulated rats to total number of rats determined in a anti-ovulatory assay by administering 10 microg of compound; 3/7
Rattus norvegicus [4] = assay: Ratio of ovulated rats to total number of rats determined in a anti-ovulatory assay by administering 2.5 microg of compound; 0/7
Rattus norvegicus [5] = assay: Ratio of ovulated rats to total number of rats determined in a anti-ovulatory assay by administering 0.5 microg of compound; 6/7
Rattus norvegicus [6] = assay: Ratio of ovulated rats to total number of rats determined in a anti-ovulatory assay by administering 1 microg of compound; 5/13
Rattus norvegicus [7] = assay: Ratio of ovulated rats to total number of rats determined in a anti-ovulatory assay by administering 5 microg of compound; 0/8
Rattus norvegicus [8] = assay: Ratio of ovulated rats to total number of rats determined in a anti-ovulatory assay by administering 1 ug of compound; 6/8
Rattus norvegicus [9] = assay: Ratio of ovulated rats to total number of rats determined in a anti-ovulatory assay by administering 10 microg of compound; 8/8
Rattus norvegicus [10] = assay: Ratio of ovulated rats to total number of rats determined in a anti-ovulatory assay by administering 25 microg of compound; 6/8
Rattus norvegicus [11] = assay: Ratio of ovulated rats to total number of rats determined in a anti-ovulatory assay by administering 5 microg of compound; 1/8
Rattus norvegicus [12] = assay: Ratio of ovulated rats to total number of rats determined in a anti-ovulatory assay by administering 10 ug of compound; 0/8
Rattus norvegicus [13] = assay: Ratio of ovulated rats to total number of rats determined in a anti-ovulatory assay by administering 50 microg of compound; 3/8
Rattus norvegicus [14] = assay: Ratio of ovulated rats to total number of rats determined in a anti-ovulatory assay by administering 100 microg of compound; 0/8
Rattus norvegicus [15] = assay: Ratio of ovulated rats to total number of rats determined in a anti-ovulatory assay by administering 1 microg of compound; 1/8

With `CC(=O)Nc1ccc(C[C@H](NC(=O)[C@H](CO)NC(=O)[C@@H](Cc2cccnc2)NC(=O)[C@@H](Cc2ccc(Cl)cc2)NC(=O)[C@@H](NC(C)=O)NC(=O)c2ccc3ccccc3c2)C(=O)N[C@H](Cc2ccc(NC(C)=O)cc2)C(=O)N[C@@H](CC(C)C)C(=O)N[C@@H](CCCCNC(C)C)C(=O)N2CCC[C@@H]2C(=O)N[C@H](C)C(N)=O)cc1` the ov. rat/total (Rattus norvegicus [1]) was “Active” and the ov. rat/total (Rattus norvegicus [2]) was “Partially active”.
In the case of `CC(=O)Nc1ccc(C[C@H](NC(=O)[C@H](CO)NC(=O)[C@H](NC(=O)c2ccncc2)NC(=O)[C@@H](Cc2ccc(Cl)cc2)NC(=O)[C@@H](Cc2ccc3ccccc3c2)NC(C)=O)C(=O)N[C@H](Cc2ccc(NC(C)=O)cc2)C(=O)N[C@@H](CC(C)C)C(=O)N[C@@H](CCCCNC(C)C)C(=O)N2CCC[C@@H]2C(=O)N[C@H](C)C(N)=O)cc1` (single isomer, unassigned), the ov. rat/total (Rattus norvegicus [3]) is reported as “Partially active”.
With `CC(=O)Nc1ccc(C[C@H](NC(=O)[C@H](CO)NC(=O)[C@@H](Cc2cccnc2)NC(=O)[C@@H](Cc2ccc(Cl)cc2)NC(=O)[C@@H](Cc2ccc3ccccc3c2)NC(C)=O)C(=O)N[C@H](Cc2ccc(NC(C)=O)cc2)C(=O)N[C@@H](CC(C)C)C(=O)N[C@@H](CCCCNC(C)C)C(=O)N2CCC[C@@H]2C(=O)N[C@H](C)C(N)=O)cc1` the ov. rat/total (Rattus norvegicus [4]) was “Active”, the ov. rat/total (Rattus norvegicus [5]) was “inactive” and the ov. rat/total (Rattus norvegicus [6]) was “Partially active”.
For `CC(=O)Nc1ccc(C[C@H](NC(=O)[C@H](NC=O)NC(=O)[C@@H](Cc2cccnc2)NC(=O)[C@@H](Cc2ccc(Cl)cc2)NC(=O)[C@@H](Cc2ccc3ccccc3c2)NC(C)=O)C(=O)N[C@H](Cc2ccc(NC(C)=O)cc2)C(=O)N[C@@H](CC(C)C)C(=O)N[C@@H](CCCCNC(C)C)C(=O)N2CCC[C@@H]2C(=O)N[C@H](C)C(N)=O)cc1`, the ov. rat/total (Rattus norvegicus [7]) was “Active” and the ov. rat/total (Rattus norvegicus [8]) was “inactive”.
In the case of `CC(=O)Nc1ccc(C[C@H](NC(=O)[C@H](CO)NC(=O)[C@@H](NC(=O)[C@@H](Cc2ccc(Cl)cc2)NC(=O)[C@@H](Cc2ccc3ccccc3c2)NC(C)=O)N(C)C(=O)c2cccnc2)C(=O)N[C@H](Cc2ccc(NC(C)=O)cc2)C(=O)N[C@@H](CC(C)C)C(=O)N[C@@H](CCCCNC(C)C)C(=O)N2CCC[C@@H]2C(=O)N[C@H](C)C(N)=O)cc1` (single isomer, unassigned), the ov. rat/total (Rattus norvegicus [9]) is reported as “inactive” and the ov. rat/total (Rattus norvegicus [10]) is reported as “inactive”.
With `CC(=O)Nc1ccc(C[C@H](NC(=O)[C@H](CO)NC(=O)[C@H](Cc2cccnc2)NC(=O)[C@@H](Cc2ccc(Cl)cc2)NC(=O)[C@@H](Cc2ccc3ccccc3c2)NC(C)=O)C(=O)N[C@H](Cc2ccc(NC(C)=O)cc2)C(=O)N[C@@H](CC(C)C)C(=O)N[C@@H](CCCCNC(C)C)C(=O)N2CCC[C@@H]2C(=O)N[C@H](C)C(N)=O)cc1` the ov. rat/total (Rattus norvegicus [11]) was “Active” and the ov. rat/total (Rattus norvegicus [12]) was “Active”.
In the case of `CC(=O)Nc1ccc(C[C@H](NC(=O)[C@H](CO)NC(=O)[C@@H](Cc2cccnc2)NC(=O)[C@H](NC(=O)[C@@H](Cc2ccc3ccccc3c2)NC(C)=O)N(C)C(=O)c2ccc(Cl)cc2)C(=O)N[C@H](Cc2ccc(NC(C)=O)cc2)C(=O)N[C@@H](CC(C)C)C(=O)N[C@@H](CCCCNC(C)C)C(=O)N2CCC[C@@H]2C(=O)N[C@H](C)C(N)=O)cc1`, the ov. rat/total (Rattus norvegicus [13]) is reported as “Partially active” and the ov. rat/total (Rattus norvegicus [14]) is reported as “Active”.
`CC(=O)Nc1ccc(C[C@H](NC(=O)[C@H](CO)NC(=O)[C@@H](Cc2cccnc2)NC(=O)[C@@H](Cc2ccc(Cl)cc2)NC(=O)[C@@H](Cc2ccc3ccccc3c2)NC(C)=O)C(=O)N[C@H](Cc2ccc(NC(C)=O)cc2)C(=O)N[C@@H](CC(C)C)C(=O)N[C@@H](CCCCNC(C)C)C(=O)N2CCC[C@@H]2C(=O)N[C@H](C(N)=O)N(C)C=O)cc1` was tested, and the ov. rat/total (Rattus norvegicus [1]) was “Active” and the ov. rat/total (Rattus norvegicus [15]) was “inactive”.

— ChEMBL document CHEMBL1130231, “Betidamino acid scan of the GnRH antagonist acyline” (J Med Chem, 1997)
